Results published in patent publication US20140296255A1, “LYSINE DEMETHYLASE INHIBITORS FOR THROMBOSIS AND CARDIOVASCULAR DISEASES” (ORYZONG GENOMICS, S.A., priority 2011, published 2014).
Where two headings read alike, the source gives them in different places.

Legend:
[1] = biological target: T1, Human recombinant LSD1 protein (Homo sapiens, UniProt O60341); test: LSD1 demethylase inhibition, Amplex Red peroxide/peroxidase-coupled assay; type: biochemical; settings: further, more elaborate determination (Table 1)
T1 construct: purchased BPS Bioscience Inc
Description: Compounds for use in the methods of the invention can be identified by their ability to inhibit LSD1. The ability of compounds to inhibit LSD1 can be tested as follows. Human recombinant LSD1 protein was purchased from BPS Bioscience Inc. In order to monitor LSD1 enzymatic activity and/or its inhibition rate by the LSD1 inhibitor(s) of interest, di-methylated H3-K4 peptide (Millipore) was chosen as a substrate. The demethylase activity was estimated, under aerobic conditions, by measuring the release of H2O2 produced during the catalytic process, using the Amplex® Red peroxide/peroxidase-coupled assay kit (Invitrogen).
Within the experiment, each concentration of inhibitor was tested in duplicate. […] The enzymatic reactions were set up in a 50 mM sodium phosphate, pH 7.4 buffer. At the end of the incubation, Amplex® Red reagent and horseradish peroxidase (HPR) solution were added to the reaction according to the recommendations provided by the supplier (Invitrogen), and left to incubate for 30 extra minutes at room temperature in the dark. A 1 μM H2O2 solution was used as a control of the kit efficiency. The conversion of the Amplex® Red reagent to resorufin due to the presence of H2O2 in the assay, was monitored by fluorescence (excitation at 540 nm, emission at 590 nm) using a microplate reader (Infinite 200, Tecan). Arbitrary units were used to measure level of H2O2 produced in the absence and/or in the presence of inhibitor.
The maximum demethylase activity of LSD1 was obtained in the absence of inhibitor and corrected for background fluorescence in the absence of LSD1. The Ki (IC50) of each inhibitor was estimated at half of the maximum activity.

[2] = biological target: T2, Human recombinant monoamine oxidase MAO-A (Homo sapiens, UniProt P21397); test: MAO-A inhibition, kynuramine fluorescence assay; type: biochemical
T2 construct: purchased Sigma Aldrich
T2 sequence (P21397 1-527): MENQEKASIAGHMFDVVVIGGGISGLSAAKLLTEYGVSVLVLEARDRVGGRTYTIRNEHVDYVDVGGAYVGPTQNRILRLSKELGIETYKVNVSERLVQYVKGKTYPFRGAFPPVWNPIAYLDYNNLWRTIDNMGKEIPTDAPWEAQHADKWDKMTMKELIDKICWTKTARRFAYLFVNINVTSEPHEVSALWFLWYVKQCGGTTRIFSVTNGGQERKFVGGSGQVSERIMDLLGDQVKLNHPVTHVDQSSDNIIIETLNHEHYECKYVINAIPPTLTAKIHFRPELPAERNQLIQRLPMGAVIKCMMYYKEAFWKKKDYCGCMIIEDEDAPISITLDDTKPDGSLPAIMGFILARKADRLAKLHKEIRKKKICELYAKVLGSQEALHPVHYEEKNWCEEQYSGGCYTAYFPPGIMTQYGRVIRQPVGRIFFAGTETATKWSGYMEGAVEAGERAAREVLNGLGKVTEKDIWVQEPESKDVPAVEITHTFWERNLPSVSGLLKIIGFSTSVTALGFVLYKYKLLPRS
Description: (§1) Human recombinant monoamine oxidase proteins MAO-A and MAO-B were purchased from Sigma Aldrich. MAOs catalyze the oxidative deamination of primary, secondary and tertiary amines. In order to monitor MAO enzymatic activities and/or their inhibition rate by inhibitor(s) of interest, a fluorescent-based (inhibitor)-screening assay was set up. 3-(2-Aminophenyl)-3-oxopropanamine (kynuramine dihydrobromide, Sigma Aldrich), a non fluorescent compound was chosen as a substrate. Kynuramine is a non-specific substrate for both MAOs activities. While undergoing oxidative deamination by MAO activities, kynuramine is converted into 4-hydroxyquinoline (4-HQ), a resulting fluorescent product.
(§2) The monoamine oxidase activity was estimated by measuring the conversion of kynuramine into 4-hydroxyquinoline. Assays were conducted in 96-well black plates with clear bottom (Corning) in a final volume of 100 μL. The assay buffer was 100 mM HEPES, pH 7.5. Each experiment was performed in duplicate within the same experiment.
(§3) Briefly, a fixed amount of MAO (0.25 μg for MAO-A and 0.5 μg for MAO-B) was incubated on ice for 15 minutes in the reaction buffer, in the absence and/or in the presence of various concentrations of inhibitor (e.g., from 0 to 50 μM, depending on the inhibitor strength).
(§4) After leaving the enzyme(s) interacting with the inhibitor, 60 to 90 μM of kynuramine was added to each reaction for MAO-B and MAO-A assay respectively, and the reaction was left for one hour at 37° C. in the dark. The oxidative deamination of the substrate was stopped by adding 50 μL (v/v) of NaOH 2N. The conversion of kynuramine to 4-hydroxyquinoline, was monitored by fluorescence (excitation at 320 nm, emission at 360 nm) using a microplate reader (Infinite 200, Tecan). Arbitrary units were used to measure levels of fluorescence produced in the absence and/or in the presence of inhibitor.
(§5) The Ki (IC50) of each inhibitor was determined at Vmax/2.

[3] = biological target: T3, Human recombinant monoamine oxidase MAO-B (Homo sapiens, UniProt P27338); test: MAO-B inhibition, kynuramine fluorescence assay; type: biochemical; settings: further, more elaborate determination (Table 1)
T3 construct: purchased Sigma Aldrich
T3 sequence (P27338 1-520): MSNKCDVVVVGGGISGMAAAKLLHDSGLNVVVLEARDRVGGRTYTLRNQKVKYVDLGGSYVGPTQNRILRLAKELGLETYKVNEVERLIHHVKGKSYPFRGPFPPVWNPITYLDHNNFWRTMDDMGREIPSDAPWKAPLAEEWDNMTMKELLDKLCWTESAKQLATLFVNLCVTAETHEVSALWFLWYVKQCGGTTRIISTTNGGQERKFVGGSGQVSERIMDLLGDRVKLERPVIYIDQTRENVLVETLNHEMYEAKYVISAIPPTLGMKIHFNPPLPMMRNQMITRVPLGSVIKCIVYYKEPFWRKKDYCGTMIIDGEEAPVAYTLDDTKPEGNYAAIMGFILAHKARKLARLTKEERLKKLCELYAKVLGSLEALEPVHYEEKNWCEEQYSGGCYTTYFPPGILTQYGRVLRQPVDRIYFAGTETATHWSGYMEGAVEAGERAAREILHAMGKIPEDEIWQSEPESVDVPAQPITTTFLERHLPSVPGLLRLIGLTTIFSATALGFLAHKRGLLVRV
Description: as §1, §2, §3, §4, §5

platelets = test: Platelet levels in mice after five once daily i.p. injections; type: in vivo, mice (Hsd:Athymic Nude-Foxnlnu); settings: blood 60 minutes after last administration
Method: On the fifth day, 60 minutes after the administration, mice were sacrificed and blood was collected in sodium citrate-containing tubes for hemogram analysis. […] Platelet levels were determined in a standard hematology analyzer (Abacus Junior Vet, from Diatron) following the manufacturer's instructions.
(§6) 20% 2-hydroxypropyl-j3-cyclodextrin in H2O was used as a vehicle. When necessary, 10% DMSO was also added in the vehicle. Each day, compounds were administered in a single intraperitoneal injection with administration volumes of 15 ml/kg.
(§7) Mice strain was Hsd:Athymic Nude-Foxnlnu. Animals were maintained in air and temperature controlled cages with regular supply of water and food.

[4] = tested on: H3K4 methylation in SH-SY5Y cells; test: Western blot for dimethylated H3K4 in SH-SY5Y cells; type: cell-based
Description: B-actin was used as a loading control.

White Blood Cells = test: White blood cell levels in mice after five once daily injections; type: in vivo, mice (Hsd:Athymic Nude-Foxnlnu); settings: five consecutive days
Method: (§8) On the fifth day, 60 minutes after the administration, mice were sacrificed and blood was collected in sodium citrate-containing tubes for hemogram analysis. Platelet levels were determined and referred as % of platelets compared with the levels found in mice treated with vehicle. Platelet levels were determined in a standard hematology analyzer (Abacus Junior Vet, from Diatron) following the manufacturer's instructions.
as §6, §7
(§9) Measurements of all blood cell types were conducted in the same manner as described above for platelets. Data in the table above are expressed as the % of cells vs vehicle.

Lymphocytes = test: Lymphocyte levels in mice after five once daily injections; type: in vivo, mice (Hsd:Athymic Nude-Foxnlnu); settings: five consecutive days
Method: as §8, §6, §7, §9

Granulocytes = test: Granulocyte levels in mice after five once daily injections; type: in vivo, mice (Hsd:Athymic Nude-Foxnlnu); settings: five consecutive days
Method: as §8, §6, §7, §9

Red blood cells = test: Red blood cell levels in mice after five once daily injections; type: in vivo, mice (Hsd:Athymic Nude-Foxnlnu); settings: five consecutive days
Method: as §8, §6, §7, §9

[5] = further, more elaborate determination (Table 1), read-out: MAO-A IC50
[6] = 30 mg/kg i.p. once daily for five days
[7] = 10 mg/kg i.p. once daily for five days
[8] = 20 mg/kg i.p. once daily for five days
[9] = 40 mg/kg i.p. once daily for five days
[10] = 3 mg/kg i.p. once daily for five days

SMILES	IC50 [1] [nM]	IC50 [2, 5] [nM]	IC50 [3] [nM]	% platelets vs. Vehicle (platelets; [6]) [%]	% platelets vs. Vehicle (platelets; [7]) [%]	% platelets vs. Vehicle (platelets; [8]) [%]	% platelets vs. Vehicle (platelets; [9]) [%]	also measured
CC(C)S(=O)(=O)Nc1cccc(-c2ccc([C@H]3C[C@@H]3N)cc2)c1 (racemic) [Compound 9]	< 70	> 1000	> 10000	10				
N[C@H]1C[C@@H]1c1ccc(-c2cccc(C(F)(F)F)c2)nc1 (racemic) [Compound 6]				63	87			
CS(=O)(=O)Nc1cccc(-c2ccc([C@H]3C[C@@H]3N)cn2)c1 (racemic) [Compound 8]						68	44	
NC(=O)CN[C@H]1C[C@@H]1c1ccc(OCc2ccccc2)cc1 (racemic) [Compound 1]	< 200	> 2000			66	55	34	potency at increasing global dimethylated H3K4 levels as compared to tranylcypromine ([4]; Dual-1 at 100 μM vs parnate at 250 μM): ten-fold or more potent; H3K4 methylation (western blot) ([4]; compound at 100 μM, one, two, and three days): increases H3K4 methylation in cells in a time dependent manner; % platelets vs. Vehicle (platelets; 5 mg/kg i.p. once daily for five days): 91%
N[C@H]1C[C@@H]1c1ccc(-c2cccc(O)c2)cc1 (racemic) [Compound 7]	< 70	> 200	> 1000					IC50 ([2]; initial determination, read-out: IC50 for MAO-A): > 1000 nM; % platelets vs. Vehicle (platelets; 17 mg/kg i.p. once daily for five days): 56%; % platelets vs. Vehicle (platelets; 34 mg/kg i.p. once daily for five days): 46%; % platelets vs. Vehicle (platelets; 52 mg/kg i.p. once daily for five days): 63%
NC(=O)CN[C@H]1C[C@@H]1c1ccc(OCc2ccccc2)cc1 (single isomer, unassigned) [Compound 2]	< 200	> 2000				35	27	% platelets vs. Vehicle (platelets; 60 mg/kg i.p. once daily for five days): 16%
CN1CCN(C(=O)CN[C@H]2C[C@@H]2c2ccc(OCc3ccccc3)cc2)CC1 (racemic) [Compound 3]		> 2000			5			% platelets vs. Vehicle (platelets; 1 mg/kg i.p. once daily for five days): 46%; % platelets vs. Vehicle (platelets; [10]): 16%; White Blood Cells, % of cells vs vehicle (White Blood Cells; 1 mg/kg): 86%; White Blood Cells, % of cells vs vehicle (White Blood Cells; 3 mg/kg): 76%; White Blood Cells, % of cells vs vehicle (White Blood Cells; 10 mg/kg): 29%; Lymphocytes, % of cells vs vehicle (Lymphocytes; 1 mg/kg): 115%; Lymphocytes, % of cells vs vehicle (Lymphocytes; 3 mg/kg): 90%; Lymphocytes, % of cells vs vehicle (Lymphocytes; 10 mg/kg): 35%; Granulocytes, % of cells vs vehicle (Granulocytes; 1 mg/kg): 69%; Granulocytes, % of cells vs vehicle (Granulocytes; 3 mg/kg): 63%; Granulocytes, % of cells vs vehicle (Granulocytes; 10 mg/kg): 23%; Red blood cells, % of cells vs vehicle (Red blood cells; 1 mg/kg): 103%; Red blood cells, % of cells vs vehicle (Red blood cells; 3 mg/kg): 101%; Red blood cells, % of cells vs vehicle (Red blood cells; 10 mg/kg): 92%
N[C@H]1CCN(CCN[C@H]2C[C@@H]2c2ccc(-c3cccc(C(F)(F)F)c3)cc2)C1 (racemic) [Compound 4]	< 100	> 2000	> 2000	7	19			% platelets vs. Vehicle (platelets; [10]): 87%; % platelets vs. Vehicle (platelets; 9 mg/kg i.p. once daily for five days): 30%; % platelets vs. Vehicle (platelets; 18 mg/kg i.p. once daily for five days): 19%; % platelets vs. Vehicle (platelets; 36 mg/kg i.p. once daily for five days): 11%
